From patent publication US20220159955A1, “METHOD OF IMPROVING PLANT GROWTH” (UPL LTD, priority 2020, published 2022)
“Also recorded” adds a separate entry of the source.

How the values were obtained:
Type in all cases: in vivo
Thrips [1] = test: Efficacy of seed treatment on thrips in direct sown rice (Example 4)
transplanted rice [2] = test: Seed treatment in transplanted rice: plant height, PGE rating, tillers (Example 5)
Thrips [3] = test: Efficacy of seed treatment on thrips in transplanted rice (Example 5)
rice (DSR) [4] = test: Seed treatment in rice (DSR): plant height, PGE rating, tillers (Example 4)
rice (DSR) [5] = test: Seed treatment in rice (DSR): germination and crop safety (Example 4)
corn seeds [6] = test: Phytotoxicity after seed treatment, corn; details: treatment of seeds
corn seeds [7] = test: Germination of flonicamid-treated corn seeds, line sowing (Example 2); details: for Average germination %: corn seed
Description: In this experiment the effect of flonicamid was tested on corn seeds. Treated and untreated seeds were sown to see the impact of flonicamid on the plant germination. Treatments are performed using FS formulation of example 1. A line sowing method was used to sow the seeds.

corn seeds [8] = test: Plant vigour visual rating of corn from treated seeds (Example 3); design: Average Plant Vigor visual rating: scale not given here
Description: In this experiment the effect was tested on corn seeds. Treated and untreated seeds were sown to see the impact of flonicamid on the plant vigour. A line sowing method was used to sow the seeds.

transplanted rice [9] = test: Seed treatment in transplanted rice: germination and crop safety (Example 5)
rice (DSR) [10] = test: Seed treatment in rice (DSR): rice grain yield (Example 4)

Compound: N#CCNC(=O)c1cnccc1C(F)(F)F [Flonicamid, N-cyanomethyl-4-trifluoromethylnicotinamide]
- No. of Thrips/Seedling (Thrips [1]; 5 ml/kg Seed, 15DAS): 4.5 Thrips/Seedling
- No. of Thrips/Seedling (Thrips [1]; 5 ml/kg Seed, 20DAS): 8.3 Thrips/Seedling
- No. of Thrips/Seedling (Thrips [1]; 5 ml/kg Seed, 25DAS): 12.3 Thrips/Seedling
- No. of Thrips/Seedling (Thrips [1]; 10 ml/kg Seed, 15DAS): 1.3 Thrips/Seedling
- No. of Thrips/Seedling (Thrips [1]; 10 ml/kg Seed, 20DAS): 4.8 Thrips/Seedling
- No. of Thrips/Seedling (Thrips [1]; 10 ml/kg Seed, 25DAS): 7.2 Thrips/Seedling
- control of thrips (in words) (Thrips [1]; seed treatment vs untreated): better control of thrips
- Plant height (cm) (transplanted rice [2]; 5 ml/kg Seed, 15DAS): 51.5 cm
- Plant height (cm) (transplanted rice [2]; 5 ml/kg Seed, 20DAS): 72.8 cm
- PGE rating (transplanted rice [2]; 5 ml/kg Seed, 30 DAS): 2
- No. of tiller/hill (transplanted rice [2]; 5 ml/kg Seed, 45DAS): 20.8 tiller/hill
- PGE rating (transplanted rice [2]; 5 ml/kg Seed, 45DAS): 2
- No. of tiller/hill (transplanted rice [2]; 5 ml/kg Seed, 60DAS): 22.6 tiller/hill
- Plant height (cm) (transplanted rice [2]; 10 ml/kg Seed, 15DAS): 58.4 cm
- Plant height (cm) (transplanted rice [2]; 10 ml/kg Seed, 20DAS): 78.5 cm
- PGE rating (transplanted rice [2]; 10 ml/kg Seed, 30 DAS): 1
- No. of tiller/hill (transplanted rice [2]; 10 ml/kg Seed, 45DAS): 25.6 tiller/hill
- PGE rating (transplanted rice [2]; 10 ml/kg Seed, 45DAS): 1
- No. of tiller/hill (transplanted rice [2]; 10 ml/kg Seed, 60DAS): 28.5 tiller/hill
- No. of Thrips/Seedling (Thrips [3]; 5 ml/kg Seed, 15DAS): 2.5 Thrips /Seedling
- No. of Thrips/Seedling (Thrips [3]; 5 ml/kg Seed, 20DAS): 7.2 Thrips /Seedling
- No. of Thrips/Seedling (Thrips [3]; 5 ml/kg Seed, 25DAS): 11.5 Thrips /Seedling
- No. of Thrips/Seedling (Thrips [3]; 10 ml/kg Seed, 15DAS): 1.2 Thrips /Seedling
- No. of Thrips/Seedling (Thrips [3]; 10 ml/kg Seed, 20DAS): 5.6 Thrips /Seedling
- No. of Thrips/Seedling (Thrips [3]; 10 ml/kg Seed, 25DAS): 9.3 Thrips /Seedling
- PGE rating (rice (DSR) [4]; 5 ml/kg Seed, 15 DAS): 2
- Plant hight (cm) (rice (DSR) [4]; 5 ml/kg Seed, 15 DAS): 12.83 cm
- Plant hight (cm) (rice (DSR) [4]; 5 ml/kg Seed, 20 DAS): 22.45 cm
- PGE rating (rice (DSR) [4]; 5 ml/kg Seed, 30 DAS): 2
- No. of tiller/hill (rice (DSR) [4]; 5 ml/kg Seed, 45 DAS): 13.5 tiller/hill
- PGE rating (rice (DSR) [4]; 5 ml/kg Seed, 45 DAS): 3
- No. of tiller/hill (rice (DSR) [4]; 5 ml/kg Seed, 60 DAS): 15.3 tiller/hill
- PGE rating (rice (DSR) [4]; 10 ml/kg Seed, 15 DAS): 1
- Plant hight (cm) (rice (DSR) [4]; 10 ml/kg Seed, 15 DAS): 15.33 cm
- Plant hight (cm) (rice (DSR) [4]; 10 ml/kg Seed, 20 DAS): 26.66 cm
- PGE rating (rice (DSR) [4]; 10 ml/kg Seed, 30 DAS): 1
- No. of tiller/hill (rice (DSR) [4]; 10 ml/kg Seed, 45 DAS): 17.2 tiller/hill
- PGE rating (rice (DSR) [4]; 10 ml/kg Seed, 45 DAS): 2
- No. of tiller/hill (rice (DSR) [4]; 10 ml/kg Seed, 60 DAS): 19.7 tiller/hill
- crop vigour parameter (in words) (rice (DSR) [4]; seed treatment vs untreated): improvement in crop vigour parameter
- % Germination (rice (DSR) [5]; 5 ml/kg Seed): 90%
- No. of germinated seed/sq · m (rice (DSR) [5]; 5 ml/kg Seed, 5DAS): 65.3 seed/sq · m
- No. of germinated seed/sq · m (rice (DSR) [5]; 5 ml/kg Seed, 10DAS): 69.6 seed/sq · m
- No. of germinated seed/sq · m (rice (DSR) [5]; 5 ml/kg Seed, 15 DAS): 70.6 seed/sq · m
- % Germination (rice (DSR) [5]; 10 ml/kg Seed): 98%
- No. of germinated seed/sq · m (rice (DSR) [5]; 10 ml/kg Seed, 5DAS): 70.6 seed/sq · m
- No. of germinated seed/sq · m (rice (DSR) [5]; 10 ml/kg Seed, 10DAS): 73.3 seed/sq · m
- No. of germinated seed/sq · m (rice (DSR) [5]; 10 ml/kg Seed, 15 DAS): 78.6 seed/sq · m
- plant growth/germination (in words) (rice (DSR) [5]; seed treatment vs untreated): enhanced plant growth/germination
- phytotoxicity (corn seeds [6]): no phytotoxicity was observed
- Average germination % (corn seeds [7]; 5 g/ml/kg Seed, 5DAS): 77.5%
- Average germination % (corn seeds [7]; 5 g/ml/kg Seed, 10DAS): 97.5%
- Average germination % (corn seeds [7]; 5 g/ml/kg Seed, 15DAS): 97.5%
- Average germination % (corn seeds [7]; 10 g/ml/kg Seed, 5DAS): 82.5%
- Average germination % (corn seeds [7]; 10 g/ml/kg Seed, 10DAS): 98%
- Average germination % (corn seeds [7]; 10 g/ml/kg Seed, 15DAS): 98%
- germination of tested corn seeds (in words) (corn seeds [7]; corn, seed treatment vs untreated): significant improvement in germination; also recorded: Enhanced germination %
- Average Plant Vigor visual rating (corn seeds [8]; 5 g/ml/kg Seed, 10DAS): 2
- Average Plant Vigor visual rating (corn seeds [8]; 5 g/ml/kg Seed, 20DAS): 1
- Average Plant Vigor visual rating (corn seeds [8]; 5 g/ml/kg Seed, 30DAS): 1
- Average Plant Vigor visual rating (corn seeds [8]; 5 g/ml/kg Seed, 40DAS): 1
- Average Plant Vigor visual rating (corn seeds [8]; 10 g/ml/kg Seed, 10DAS): 2
- Average Plant Vigor visual rating (corn seeds [8]; 10 g/ml/kg Seed, 20DAS): 1
- Average Plant Vigor visual rating (corn seeds [8]; 10 g/ml/kg Seed, 30DAS): 1
- Average Plant Vigor visual rating (corn seeds [8]; 10 g/ml/kg Seed, 40DAS): 1
- growth versus untreated control (in words) (corn seeds [8]; 30 days after sowing): Excellent growth
- % Germination (transplanted rice [9]; 5 ml/kg Seed): 86%
- No. of germinated seed/sq · m (transplanted rice [9]; 5 ml/kg Seed, 5DAS): 98 seed/sq · m
- No. of germinated seed/sq · m (transplanted rice [9]; 5 ml/kg Seed, 10DAS): 102 seed/sq · m
- No. of germinated seed/sq · m (transplanted rice [9]; 5 ml/kg Seed, 15DAS): 108 seed/sq · m
- % Germination (transplanted rice [9]; 10 ml/kg Seed): 98%
- No. of germinated seed/sq · m (transplanted rice [9]; 10 ml/kg Seed, 5DAS): 110 seed/sq · m
- No. of germinated seed/sq · m (transplanted rice [9]; 10 ml/kg Seed, 10DAS): 120 seed/sq · m
- No. of germinated seed/sq · m (transplanted rice [9]; 10 ml/kg Seed, 15DAS): 128 seed/sq · m
- Rice grain yield t/ha (rice (DSR) [10]; 5 ml/kg Seed): 4.53 t/ha
- Rice grain yield t/ha (rice (DSR) [10]; 10 ml/kg Seed): 4.85 t/ha
